Data published in US5053333A, “Protease” (M & D Research Co., Ltd., priority 1988, dated 1991).
Numbered stars: 1 amine (or outer) side, 2 acyl side, 3 side chain; on linkers, the order of the positions; unused ones are H or OH. Square brackets hold non-standard residues; d marks the D form. Peptide text beside a SMILES is read from it. * marks the point of attachment. Sta = CC(C)C[C@H](N)[C@@H](O)CC(=O)O; AMC = Cc1cc(=O)oc2cc(N*)ccc12; Suc = O=C(CCC(=O)[*:2])[*:1]; Isovaleryl = CC(C)CC(=O)*; Cbz = O=C(OCc1ccccc1)*; Boc = CC(C)(C)OC(=O)*; CO = O=C([*:1])[*:2]

Key:
[1] = tested on: protease specific for basic amino acid residue from Sporobolomyces odrus IFO 1597; experiment: Substrate specificity of Sporobolomyces protease with fluorescent substrates; assay type: biochemical; details: activity for Boc-Gln-Arg-Arg-MCA being 100; standard conditions
Method: A reaction mixture containing 50 μmol of tris hydrochloride buffer solution (pH 7.0), 10 mg of Lubrol PX, 0.5 μmol of calcium chloride, 0.1 μmol of Boc-Gln-Arg-Arg-MCA, wherein Boc represents a t-butyloxycalbonyl group while MCA represents 4-methylcoumarin-7-amide and the enzyme is allowed to react at 30° C. The fluorescence (excition wavelength: 380 nm, emission wavelength: 460 nm) originating from the 7-amino-4-methylcoumarin (AMC) thus formed is monitored. The amount of the enzyme capable of catalyzing the release of 1 nmol of AMC per one minute is defined as 1 U.
The activities of the enzyme for various fluorescent substrates were determined under standard reaction conditions.

[2] = tested on: Benz-I (protease specific for basic amino acid residue); experiment: Behavior of Benz-I against various inhibitors (residual activity); assay type: biochemical, Kluyveromyces lactis IFO 1903; details: 25° C. 30 minutes, control lot = 100
[3] = tested on: Benz-II (protease specific for basic amino acid residue); experiment: Behavior of Benz-II against various inhibitors (residual activity); assay type: biochemical, Kluyveromyces lactis IFO 1903; details: 25° C. 30 minutes, control lot = 100
[4] = tested on: protease specific for basic amino acid residue from Sporobolomyces odrus IFO 1597; experiment: Behavior of Sporobolomyces protease against various inhibitors (residual activity); assay type: biochemical; details: Ca2+ +, 25° C. 30 minutes

Molecule: Cc1cc(=O)oc2cc(NC(=O)[C@@H]3CCCN3C(=O)CNC(=O)CCC(=O)O)ccc12 [Suc--Gly--Pro--MCA] (Suc-Gly-Pro-{AMC})
- Activity (relative) for substrate [1]: 0%

Molecule: CCCCC(NC(=O)C=[N+]=[N-])C(=O)OC (racemic) [diazoacetyl-DL-norleucine methyl ester]
- Residual activity of Benz-I ([2]; inhibitor 5 mM): 85
- Residual activity of Benz-II ([3]; inhibitor 5 mM): 73
- relative activity (residual) ([4]; inhibitor 5 mM): 72%

Molecule: Cc1cc(=O)oc2cc(NC(=O)[C@H](CCCNC(=N)N)NC(=O)[C@H](CCCNC(=N)N)NC(=O)OCc3ccccc3)ccc12 [Z--Arg--Arg--MCA] (Cbz-Arg-Arg-{AMC})
- Activity (relative) for substrate [1]: 0%

Molecule: chymostatin
- Residual activity of Benz-I ([2]; inhibitor 10 μM): 98
- Residual activity of Benz-II ([3]; inhibitor 10 μM): 99
- relative activity (residual) ([4]; inhibitor 10 μM): 98%

Molecule: CC[C@H](C)[C@H](NC(=O)OC(C)(C)C)C(=O)N[C@@H](CCC(=O)O)C(=O)NCC(=O)N[C@@H](CCCNC(=N)N)C(=O)Nc1ccc2c(C)cc(=O)oc2c1 [Boc--Ile--Glu--Gly--Arg--MCA] (Boc-IEGR-{AMC})
- Activity (relative) for substrate [1]: 5%

Molecule: CCCCCCCCCCCCOS(=O)(=O)[O-].[Na+] [sodium dodecyl sulfate]
- Residual activity of Benz-I ([2]; inhibitor 0.1%): 94
- Residual activity of Benz-II ([3]; inhibitor 0.1%): 91

Molecule: CC(C)CC(=O)N[C@H](C(=O)N[C@H](C(=O)N[C@@H](CC(C)C)[C@@H](O)CC(=O)N[C@@H](C)C(=O)N[C@@H](CC(C)C)[C@@H](O)CC(=O)O)C(C)C)C(C)C [pepstatin A] (Isovaleryl-VV[Sta]A[Sta]-OH)
- Residual activity of Benz-I ([2]; inhibitor 10 μM): 100
- Residual activity of Benz-II ([3]; inhibitor 10 μM): 96
- relative activity (residual) ([4]; inhibitor 10 μM): 104%

Molecule: CC(=O)N[C@@H](CC(C)C)C(=O)N[C@@H](CC(C)C)C(=O)N[C@H](C=O)CCCNC(=N)N [leupeptin]
- Residual activity of Benz-I ([2]; inhibitor 10 μM): 93
- Residual activity of Benz-II ([3]; inhibitor 10 μM): 96
- relative activity (residual) ([4]; inhibitor 10 μM): 92%

Molecule: O=S(=O)(F)Cc1ccccc1 [phenylmethanesulfonyl fluoride]
- Residual activity of Benz-I ([2]; inhibitor 1 mM): 107
- Residual activity of Benz-II ([3]; inhibitor 1 mM): 103
- relative activity (residual) ([4]; inhibitor 1 mM): 112%

Molecule: OCCS [2-mercaptoethanol]
- Residual activity of Benz-I ([2]; inhibitor 1 mM): 112
- Residual activity of Benz-II ([3]; inhibitor 1 mM): 153
- relative activity (residual) ([4]; inhibitor 1 mM): 95%

Molecule: CC(C)C[C@H](NC(=O)[C@@H](O)[C@H](N)Cc1ccccc1)C(=O)O [bestatin]
- Residual activity of Benz-I ([2]; inhibitor 10 μM): 95
- Residual activity of Benz-II ([3]; inhibitor 10 μM): 97
- relative activity (residual) ([4]; inhibitor 10 μM): 97%

Molecule: O[C@H](CS)[C@H](O)CS (racemic) [dithiothreitol]
- Residual activity of Benz-I ([2]; inhibitor 1 mM): 96
- Residual activity of Benz-II ([3]; inhibitor 1 mM): 128
- relative activity (residual) ([4]; inhibitor 1 mM): 97%

Molecule: CC(C)[C@H](NC(=O)[C@H](CCCNC(=N)N)NC(=O)N[C@@H](Cc1ccccc1)C(=O)O)C(=O)N[C@H](C=O)CCCNC(=N)N [antipain] ({Phe-CO}-Arg-Val-Arg-aldehyde)
- Residual activity of Benz-I ([2]; inhibitor 10 μM): 89
- Residual activity of Benz-II ([3]; inhibitor 10 μM): 88
- relative activity (residual) ([4]; inhibitor 10 μM): 70%

Molecule: Cc1cc(=O)oc2cc(NC(=O)[C@H](Cc3ccc(O)cc3)NC(=O)[C@@H](NC(=O)[C@H](CC(C)C)NC(=O)[C@H](CC(C)C)NC(=O)CCC(=O)O)C(C)C)ccc12 [Suc--Leu--Leu--Val--Tyr--MCA] (Suc-LLVY-{AMC})
- Activity (relative) for substrate [1]: 0%

Molecule: Cc1ccc(S(=O)(=O)NC(CCCCN)C(=O)CCl)cc1 (stereo not drawn) [tosyllysine chloromethyl ketone]
- Residual activity of Benz-I ([2]; inhibitor 0.2 mM): 98
- Residual activity of Benz-II ([3]; inhibitor 0.2 mM): 95
- relative activity (residual) ([4]; inhibitor 0.2 mM): 108%

Molecule: Cc1cc(=O)oc2cc(NC(=O)[C@@H](N)CCCNC(=N)N)ccc12 [Arg--MCA]
- Activity (relative) for substrate [1]: < 1%

Molecule: Cc1cc(=O)oc2cc(NC(=O)[C@@H](N)CC(C)C)ccc12 [Leu--MCA]
- Activity (relative) for substrate [1]: < 1%

Molecule: Cc1cc(=O)oc2cc(NC(=O)[C@H](CCCNC(=N)N)NC(=O)CNC(=O)[C@H](CC(C)C)NC(=O)OC(C)(C)C)ccc12 [Boc--Leu--Gly--Arg--MCA] (Boc-Leu-Gly-Arg-{AMC})
- Activity (relative) for substrate [1]: 1%
